These results are taken from US10131644B2, “Aryl sultam derivatives as RORc modulators” (Genentech, Inc., priority 2014, dated 2018).

The assay has as its target T1, RORc (Homo sapiens, UniProt P51449).
T1 sequence (P51449 269-508 limits assumed): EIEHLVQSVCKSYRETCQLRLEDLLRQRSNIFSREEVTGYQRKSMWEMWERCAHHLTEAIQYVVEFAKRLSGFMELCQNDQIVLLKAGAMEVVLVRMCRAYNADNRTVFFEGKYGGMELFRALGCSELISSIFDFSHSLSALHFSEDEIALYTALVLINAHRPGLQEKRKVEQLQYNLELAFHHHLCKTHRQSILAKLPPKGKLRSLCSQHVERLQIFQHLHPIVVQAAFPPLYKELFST
Kind of assay: In vitro RORc ligand binding assay (25-[3H]hydroxycholesterol displacement). The conditions noted are these: IC50, IC50 values for RORc; unit inferred.

As a reminder, the IC50 is the midpoint of a concentration-inhibition curve. Low readings indicate higher potency, high ones lower potency. As to `C[C@H]1CC[C@H](c2ccccc2)S(=O)(=O)N1Cc1ccc(C2(C#N)CC(F)(F)C2)cc1F` [Compound 165, 3,3-difluoro-1-[3-fluoro-4-[[(3S,6R)-3-methyl-1,1-dioxo-6-phenyl-thiazinan-2-yl]methyl]phenyl]cyclobutanecarbonitrile], the IC50 turned out to be 52.2 nM.
For `C[C@H]1CC[C@H](c2ccccc2)S(=O)(=O)N1Cc1ccc(C2(NCC(=O)N(C)C)CCOCC2)cc1F` [Compound 166, 2-[[4-[3-fluoro-4-[[(3S,6R)-3-methyl-1,1-dioxo-6-phenyl-thiazinan-2-yl]methyl]phenyl]tetrahydropyran-4-yl]amino]-N,N-dimethyl-acetamide], the IC50 came out at 27.6 nM.
Consider `C[C@H]1CC[C@H](c2ccccc2)S(=O)(=O)N1Cc1ccc(C2(C(N)=O)CC(F)(F)C2)cc1F` [Compound 167, 3,3-difluoro-1-[3-fluoro-4-[[(3S,6R)-3-methyl-1,1-dioxo-6-phenyl-thiazinan-2-yl]methyl]phenyl]cyclobutanecarboxamide], for which the concentration for half-maximal inhibition (IC50) was determined as 11.1 nM.
The value for `CCOC(=O)[C@@H](C)NC1(c2ccc(CN3[C@@H](C)CC[C@H](c4ccccc4)S3(=O)=O)c(F)c2)CCOCC1` [Compound 172, ethyl (2R)-2-[[4-[3-fluoro-4-[[(3S,6R)-3-methyl-1,1-dioxo-6-phenyl-thiazinan-2-yl]methyl]phenyl]tetrahydropyran-4-yl]amino]propanoate] was 120 nM; that for `CNC(=O)CNC1(c2ccc(CN3[C@@H](C)CC[C@H](c4ccccc4)S3(=O)=O)c(F)c2)CCOCC1` [Compound 173, 2-[[4-[3-fluoro-4-[[(3S,6R)-3-methyl-1,1-dioxo-6-phenyl-thiazinan-2-yl]methyl]phenyl]tetrahydropyran-4-yl]amino]-N-methyl-acetamide] was 33.1 nM; that for `CC(OC1(c2ccc(CN3[C@@H](C)CC[C@H](c4ccccc4)S3(=O)=O)c(F)c2)CCOCC1)C(N)=O` (stereo partly drawn) [Compound 174, 2-[4-[3-fluoro-4-[[(3S,6R)-3-methyl-1,1-dioxo-6-phenyl-thiazinan-2-yl]methyl]phenyl]tetrahydropyran-4-yl]oxypropanamide] was 37.9 nM.
The value for `CC(=O)N1CC(OCC(N)=O)(c2cc(F)c(CN3[C@@H](C)CC[C@H](c4ccccc4)S3(=O)=O)cc2F)C1` [Compound 175, 2-[1-acetyl-3-[2,5-difluoro-4-[[(3S,6R)-3-methyl-1,1-dioxo-6-phenyl-thiazinan-2-yl]methyl]phenyl]azetidin-3-yl]oxyacetamide] was 4.9 nM.
The result for `C[C@H]1CC[C@H](c2ccccc2)S(=O)(=O)N1Cc1cc(F)c(C2(OCC(=O)NCCO)COC2)cc1F` [Compound 176, 2-[3-[2,5-difluoro-4-[[(3S,6R)-3-methyl-1,1-dioxo-6-phenyl-thiazinan-2-yl]methyl]phenyl]oxetan-3-yl]oxy-N-(2-hydroxyethyl)acetamide] reads 2.5 nM; that for `CNC(=O)COC1(c2cc(F)c(CN3[C@@H](C)CC[C@H](c4ccccc4)S3(=O)=O)cc2F)COC1` [Compound 177, 2-[3-[2,5-difluoro-4-[[(3S,6R)-3-methyl-1,1-dioxo-6-phenyl-thiazinan-2-yl]methyl]phenyl]oxetan-3-yl]oxy-N-methyl-acetamide], 4.35 nM; that for `C[C@H]1CC[C@H](c2ccccc2)S(=O)(=O)N1Cc1ccc([C@]2(C#N)C[C@H](O)C2)cc1F` [Compound 178, 1-[3-fluoro-4-[[(3S,6R)-3-methyl-1,1-dioxo-6-phenyl-thiazinan-2-yl]methyl]phenyl]-3-hydroxy-cyclobutanecarbonitrile], 44.1 nM.
`C[C@H]1CC[C@H](c2ccccc2)S(=O)(=O)N1Cc1ccc([C@]2(C#N)C[C@@H](O)C2)cc1F` [Compound 179, 1-[3-fluoro-4-[[(3S,6R)-3-methyl-1,1 dioxo-6-phenyl-thiazinan-2-yl]methyl]phenyl]-3-hydroxy-cyclobutanecarbonitrile] showed an IC50 of 159 nM.
